Reference: US11414387B2, “Oxoacridinyl acetic acid derivatives and methods of use” (Stingthera, Inc., priority 2017, dated 2022)

What was measured:
mSTING-CTD = mSTING-CTD (Mus musculus (Mouse), UniProt Q3TBT3); experiment: Mouse STING protein FP competition concentration response assay; format: binding
Procedure: (§1) A validated STING ligand, such as c-di-GMP, which is labeled with a read-out signal (e.g., a fluorescence signal such as fluorescein), is mixed with STING-CTD (e.g., mouse STING-CTD or human STING-CTD) with or without the presence of a compound of the present application. Changes in the read-out signal are measured (e.g., by fluorescence anisotropy) to determine the binding of the compound to STING-CTD.
(§2) Fluorescein labeled c-di-GMP was mixed with mSTING-CTD with or without the presence of a compound of the present application in PBS in black 384-well plates (10 μL per well). The fluorescence anisotropy was determined on a PerkinElmer EnVisions multi-mode plate reader. The plate can be read immediately after mixing the reagents or after a few hours without change of signals.
• 1) 6×his-sumo-mSTING (Supplier: HDB) • 2) 2′-Fluo-AHC-c-di GMP (BIOLOG #F009) • 3) 23-cGAMP (BIOLOG #C161) • 4) DMXAA (InvivoGen #tlrl-dmx) • 5) DMSO (Sigma. #D5879-100 mL) • 6) 10×PBS(HDB #MCP-020) • 7) Assay plate, 384-well black plate, solid black bottom (Greiner #784076) • 8) Compound dilution intermediate plate, 384 LDV plate (Labcyte #LP-0200) • 9) Liquid handler, ECHO550 (Labcyte) • 10) Liquid handler, Bravo (Aglient) • 11) Reader, Envision (PerkinElmer) • 12) Centrifuge (Eppendorf) • 13) Multichannel Pipette (Raining) • 14) 10 ml Reservoir (Corning) • 15) 15 ml centrifuge tube (Corning) • 16) Adhesive Plate seals (BioRad) Compound Preparation • a) Containers of each compound were centrifuged at 1000 rpm for 5 min. • b) Compounds were dissolved in DMSO at 30 mM. • c) Compounds were sufficiently vortexed, and centrifuged at 1000 rpm for 1 min. • d) 16 uL of the compound solution was transferred into a LDV Compound Plate. • e) 2-fold serial dilutions of the compound solution were made with DMSO, and 14 concentrations were made in the 384-well LDV Compound Plate. • f) The LDV plate was spun at 1000 rpm for 60 sec and sealed with foil (stored at −20° C. if not used immediately). • g) 335 nL of each compound from the LDV Compound Plate was transferred to Assay Plate (ECHO550). Probe Preparation • a) 200 uM probe stock (2′-Fluo-AHC-c-diGMP) was diluted by dd2O to 6 uM working concentration. • b) 10-12 uL 6 uM working solution of probe was transferred into the LDV plate. • c) 50 nL per well 6 uM working solution of probe was transferred from the LDV plate to each well of the empty Assay Plate (Greiner 784076) by ECHO550 Buffer mode. • d) Probe final concentration was 30 nM when assay system was 10 uL. • e) The Assay Plate was spun at 1000 rpm for 1 min. Compound Addition • a) After the LDV Compound Plate was prepared, 100 nL compound (ECHO550 DMSO mode) was transferred from the LDV Compound Plate into the Assay Plate (Greiner 784076) containing 50 nL probe in each well according to the Assay Plate layout. • b) DMSO final concentration was 1% when assay system was 10 uL. • c) The Assay Plate was spun at 1000 rpm for 1 min. Protein Addition • a) Aliquot of 6×his-sumo-mSTING protein was thawed on ice, briefly to generate uniform solution. • b) 66 uM stock protein was diluted in 1×PBS assay buffer to generate 8 uM final solutions. • c) For test compound and ZPE wells, 10 μL per well of 8 uM protein solutions was added into the Assay Plate containing both the probe and test compounds or DMSO using multichannel pipette. • d) For HPE wells, 10 µL/well of 1×PBS assay buffer instead of protein was added into the Assay Plate containing both the probe and DMSO using multichannel pipette. • e) The Assay Plate was spun at 1000 rpm for 1 min. • f) The Assay Plate was incubated at r.t. for 10-20 min.
(§3) The EnVision plate reader was used to record the FA value of each well immediately after mixing the reagents or after a few hours without change of signals.
(§4) The raw data and calculated data (Fluorescence anisotropy (FA)) was exported from the EnVision reader. […]

hSTING-CTD = hSTING-CTD (Homo sapiens (Human), UniProt Q86WV6); experiment: Human STING protein FP competition concentration response assay; format: binding
Procedure: as §1
as §2, with “c-di-GMP, a validated STING ligand,” for “c-di-GMP”, “recombinant hSTING-CTD in a homogenous assay format” for “mSTING-CTD”, “application (titrated)” for “application”
• 1) hSTING (Supplier: HDB) • 2) 2′-Fluo-AHC-c-di GMP (BIOLOG #F009) • 3) 2′3′-cGAMP (BIOLOG #C161) • 4) DMXAA (InvivoGen #tlrl-dmx) • 5) DMSO (Sigma, #D5879-100 mL) • 6) 10×PBS(HDB #MCP-020) • 7) Assay plate, 384-well black plate, solid black bottom (Greiner #784076) • 8) Compound dilution intermediate plate, 384 LDV plate (Labcyte #LP-0200) • 9) Liquid handler, ECHO550 (Labcyte) • 10) Liquid handler, Bravo (Aglient) • 11) Reader, Envision (PerkinElmer) • 12) Centrifuge (Eppendorf) • 13) Multichannel Pipette (Raining) • 14) 10 ml Reservoir (Corning) • 15) 15 ml centrifuge tube (Corning) • 16) Adhesive Plate seals (BioRad) Compound Preparation • a) Containers of each compound were centrifuged at 1000 rpm for 5 min. • b) Compounds were dissolved in DMSO at 30 mM. • c) Compounds were sufficiently vortexed, and centrifuged at 1000 rpm for 1 min. • d) 16 uL of the compound solution was transferred into a LDV Compound Plate. • e) 2-fold serial dilutions of the compound solution were made with DMSO, and 14 concentrations were made in the 384-well LDV Compound Plate. • f) The LDV plate was spun at 1000 rpm for 60 sec and sealed with foil (stored at −20° C. if not used immediately). • g) 335 nL of each compound from the LDV Compound Plate was transferred to Assay Plate (ECHO550). Probe Preparation • a) 200 uM probe stock (2′-Fluo-AHC-c-diGMP) was diluted by ddH2O to 6 uM working concentration. • b) 10-12 uL 6 uM working solution of probe was transferred into the LDV plate. • c) 50 nL per well 6 uM working solution of probe was transferred from the LDV plate to each well of the empty Assay Plate (Greiner 784076) by ECHO550 Buffer mode. • d) Probe final concentration was 30 nM when assay system was 10 uL. • e) The Assay Plate was spun at 1000 rpm for 1 min. Compound Addition • a) After the LDV Compound Plate was prepared, 335 nL compound (ECHO550 DMSO mode) was transferred from the LDV Compound Plate into the Assay Plate (Greiner 784076) containing 50 nL probe in each well according to the Assay Plate layout. • b) DMSO final concentration was 3.35% when assay system was 10 uL. • c) The Assay Plate was spun at 1000 rpm for 1 min. Protein Addition • a) Aliquot of hSTING protein was thawed on ice, briefly to generate uniform solution. • b) 55 uM stock protein was diluted in 1×PBS assay buffer to generate 10 uM final solutions. • c) For test compound and ZPE wells, 10 μL per well of 10 uM protein solutions was added into the Assay Plate containing both the probe and test compounds or DMSO using multichannel pipette. • d) For HPE wells, 10 μL/well of 1×PBS assay buffer instead of protein was added into the Assay Plate containing both the probe and DMSO using multichannel pipette. • e) The Assay Plate was spun at 1000 rpm for Imin. • f) The Assay Plate was incubated at r.t. for 10-20 min.
as §3, §4

mSTING-R232 = mSTING-R232 (Mus musculus, UniProt Q3TBT3); experiment: STING differential scanning fluorimetry (DSF) assay, mouse STING; settings: net shift in melting temperature
Procedure: (§5) A STING DSF assay was performed to determine protein thermostability shift in response to small molecule ligand binding. A STING thermostability shift assay based on differential scanning fluorimetry was used to measure (1) the net shift in melting temperature (ΔTm)between the apo and ligand-bound states of the STING protein and (2) the concentration of the thermal denaturation transition (EC50) as a surrogate measure of binding affinity (K). […] Protein in assay buffer was transferred to a 384 well plate and incubated with the hydrophobic fluorescent dye SYBR Orange. A temperature ramp was applied to the plate and the resulting dye fluorescence was plotted as a function of temperature. The first derivative of this function (dF/dT) was then used to extrapolate the melting temperature of the protein at various concentrations of compound and determine the thermal denaturation profile of a protein/compound complex.
(§6) • 1. Protein construct (affinity tag removal vs SUMO-fusion construct) • 2. Protein concentration • 3. Dye concentration • 4. Buffer • 5. Thermal ramp velocity • 6. DMSO tolerance • 7. Compound titration parameters • 8. […] 5 μM purified Target STING Protein • 3. 8 μM Sypro Orange Dye • 4. Buffer: 100 mM NaCl, 30 mM HEPES, pH 7.5 • 5. Thermal Ramp: 0.5° C./min • 6. <1% DMSO • 7. 11 point, 2 fold dilution, duplicate, 300 μM high concentrations • 8.

hSTING-WT = hSTING-WT (Homo sapiens (Human), UniProt Q86WV6, H232R); experiment: Radiometric filtration binding competition assay, hSTING-WT
Procedure: A radiometric filtration binding competition assay was performed to quantify the binding affinity of compounds of the present application for the human or mouse STING protein, or associated HAQ human isoform. […] The resulting dose response was fit by non-linear regression to determine an IC50 value, from which a Ki value for each compound was extrapolated.
The resulting complexes were then filtered, dried, and scintillation fluid was added and the remaining radio signal was measured to determine the degree of compound ligand inhibition. This assay format was optimized for both the WT and HAQ isoforms of the human protein and the mouse orthologue protein.
Probe Concentration: Minimum concentration that achieved max assay window • g. Assay Format: Scintillation Proximity Bead or Filtration Binding Plate • h. […] Assay incubation times for successive incubation steps
WT-hSWAT: WT_FBA_HIS-SUMO-hSWAT IC50 (μM) (“WT”=Wild-type); HAQ-hSWAT: HAQ_FBA_HIS-SUMO-hSWAT IC50 (μM) (“HAQ”=human HAQ allele of STING protein); and WT-mSWAT: MOUSE_FBA_HIS-SUMO-mnSWAT IC50 (μM) which is the mouse isoform of STING protein.

STING protein = STING protein (Homo sapiens (Human), UniProt Q86WV6, H232R); experiment: Cell based reporter assay of IRF activation (IRF-luciferase), THP1-dual-KI R232; settings: read-out: THP1-dual-KI R232_IRF(Luciferase)_Activity Maximum measured (%)
hSTING-R232 = hSTING-R232 (Homo sapiens (Human), UniProt Q86WV6, H232R); experiment: STING differential scanning fluorimetry (DSF) assay, WT human STING; settings: WT (R232) human STING aa140-379, net shift in melting temperature
hSTING-R232, sequence (Q86WV6 140-379 H232R): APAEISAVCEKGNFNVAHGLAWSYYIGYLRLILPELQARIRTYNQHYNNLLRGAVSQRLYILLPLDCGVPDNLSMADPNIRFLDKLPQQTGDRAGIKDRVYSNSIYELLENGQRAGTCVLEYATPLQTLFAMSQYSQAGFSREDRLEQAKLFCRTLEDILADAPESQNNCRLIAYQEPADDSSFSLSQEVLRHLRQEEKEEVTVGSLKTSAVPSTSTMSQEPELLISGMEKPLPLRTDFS
Procedure: as §5, §6

STING protein, sequence (Q86WV6 whole entry H232R, the tested form may be a part): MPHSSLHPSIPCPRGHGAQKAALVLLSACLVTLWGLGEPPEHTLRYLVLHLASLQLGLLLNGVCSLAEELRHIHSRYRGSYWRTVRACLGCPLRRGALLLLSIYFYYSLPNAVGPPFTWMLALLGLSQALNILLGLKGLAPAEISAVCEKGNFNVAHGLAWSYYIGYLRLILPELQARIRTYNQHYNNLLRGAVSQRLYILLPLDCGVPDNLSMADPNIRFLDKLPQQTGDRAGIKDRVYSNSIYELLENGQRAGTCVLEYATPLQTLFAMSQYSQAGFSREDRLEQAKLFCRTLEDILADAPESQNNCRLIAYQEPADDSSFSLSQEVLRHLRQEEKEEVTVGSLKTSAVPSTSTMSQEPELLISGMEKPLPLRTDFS
hSTING-WT, sequence (Q86WV6 140-379 H232R): as the sequence (Q86WV6 140-379 H232R) above
mSTING-CTD, sequence (Q3TBT3 134-378): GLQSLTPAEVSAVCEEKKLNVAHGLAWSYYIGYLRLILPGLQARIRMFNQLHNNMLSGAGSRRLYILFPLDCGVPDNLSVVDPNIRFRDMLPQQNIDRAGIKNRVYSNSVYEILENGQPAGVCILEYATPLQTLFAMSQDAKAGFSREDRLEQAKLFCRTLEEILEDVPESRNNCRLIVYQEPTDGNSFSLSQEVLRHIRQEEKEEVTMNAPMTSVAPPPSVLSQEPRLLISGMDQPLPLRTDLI
hSTING-CTD, sequence (Q86WV6 135-379): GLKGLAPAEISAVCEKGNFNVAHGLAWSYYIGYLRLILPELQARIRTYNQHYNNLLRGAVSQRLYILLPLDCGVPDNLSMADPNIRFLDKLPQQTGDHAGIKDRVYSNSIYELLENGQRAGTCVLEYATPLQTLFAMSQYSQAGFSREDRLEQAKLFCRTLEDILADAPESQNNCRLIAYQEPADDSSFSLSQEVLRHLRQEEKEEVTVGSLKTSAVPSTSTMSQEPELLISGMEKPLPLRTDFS

IC50 (mSTING-CTD) | IC50 (hSTING-CTD) | further results | Compound
50 to 100 µM |  |  | O=C(O)Cn1c2ccccc2c(=O)c2c(F)cccc21 [Compound 1]
50 to 100 µM |  |  | O=C(O)Cn1c2ccccc2c(=O)c2c(Cl)cccc21 [Compound 2]
10 to 50 µM |  |  | Cc1cccc2c1c(=O)c1ccccc1n2CC(=O)O [Compound 3]
10 to 50 µM |  |  | O=C(O)Cn1c2ccccc2c(=O)c2ccc(F)cc21 [Compound 4]
10 to 50 µM |  |  | O=C(O)Cn1c2ccccc2c(=O)c2ccc(Cl)cc21 [Compound 5]
10 to 50 µM |  |  | Cc1ccc2c(=O)c3ccccc3n(CC(=O)O)c2c1 [Compound 6]
10 to 50 µM |  |  | Cc1ccc2c(=O)c3c(C)cccc3n(CC(=O)O)c2c1 [Compound 14]
10 to 50 µM |  |  | Cc1ccc2c(=O)c3c(Cl)cccc3n(CC(=O)O)c2c1 [Compound 16]
10 to 50 µM |  |  | O=C(O)Cn1c2ccccc2c(=O)c2ccc(Br)cc21 [Compound 18]
50 to 100 µM |  |  | O=C(O)Cn1c2ccccc2c(=O)c2c(Br)cccc21 [Compound 20]
 | 100 to 500 µM |  | O=C(O)Cn1c2ccc(Br)cc2c(=O)c2ccc(Cl)c(Cl)c21 [Compound 89]
 | 500 to 1000 µM |  | O=C(O)CN1c2ccccc2Cc2cc(CCC3CCCCC3)ccc21 [Compound 90]
 | < 100 µM |  | CC(C)c1ccc(-c2ccc3c(=O)c4ccc(Cl)c(Cl)c4n(CC(=O)O)c3c2)cc1 [Compound 91]
 | 500 to 1000 µM |  | Cc1cc2c(=O)c3ccc(Cl)c(Cl)c3n(CC(=O)O)c2cc1F [Compound 93]
 | 100 to 500 µM |  | COc1ccc2c(=O)c3ccc(Cl)c(Cl)c3n(CC(=O)O)c2c1 [Compound 95]
 | 100 to 500 µM |  | Cc1ccc2c(c1C)c(=O)c1ccc(Cl)c(Cl)c1n2CC(=O)O [Compound 96]
 | < 100 µM |  | N#Cc1ccc2c(=O)c3ccccc3n(CC(=O)O)c2c1Cl [Compound 107]
 | < 100 µM | MOUSE DSF_6xHIS-SUMO Tm Shift (° C.) (mSTING-R232): C (“C” = 5-15° C.); IC50 (hSTING-WT): 20 to 100 µM; Emax (STING protein): 5 to 25%; WT_DSF_hSWAT Tm Shift (° C.) (hSTING-R232): B (“B” = 0-2° C.) | Cc1ccc2c(=O)c3ccc(Cl)c(Br)c3n(CC(=O)O)c2c1 [Compound 112]
 | < 100 µM |  | O=C(O)Cn1c2cc(C3=CCCC3)ccc2c(=O)c2ccc(Cl)c(Cl)c21 [Compound 114]
 | < 100 µM |  | O=C(O)Cn1c2cc(C3=CCCCC3)ccc2c(=O)c2ccc(Cl)c(Cl)c21 [Compound 116]
 | < 100 µM |  | O=C(O)Cn1c2cc(NC3CCC3)ccc2c(=O)c2ccc(Cl)c(Cl)c21 [Compound 117]
 | < 100 µM |  | O=C(O)Cn1c2cc(NC3CCCC3)ccc2c(=O)c2ccc(Cl)c(Cl)c21 [Compound 118]
 | < 100 µM |  | CC(C)Nc1ccc2c(=O)c3ccc(Cl)c(Cl)c3n(CC(=O)O)c2c1 [Compound 119]
 | 500 to 1000 µM |  | Cc1ccc2c(c1)c(=O)c1ccc(Cl)c(Cl)c1n2CC(=O)O [Compound 121]
 | < 100 µM | MOUSE DSF_6xHIS-SUMO Tm Shift (° C.) (mSTING-R232): D (“D” > 15° C.); IC50 (hSTING-WT): 20 to 100 µM; Emax (STING protein): > 50%; WT_DSF_hSWAT Tm Shift (° C.) (hSTING-R232): C (“C” = 2-7° C,) | O=C(O)Cn1c2cc(NC3CCCCCC3)ccc2c(=O)c2ccc(Cl)c(Cl)c21 [Compound 122]
 | < 100 µM |  | CCNc1ccc2c(=O)c3ccc(Cl)c(Cl)c3n(CC(=O)O)c2c1 [Compound 123]
 | < 100 µM | MOUSE DSF_6xHIS-SUMO Tm Shift (° C.) (mSTING-R232): B (“B” = 0-5° C.); IC50 (hSTING-WT): 20 to 100 µM; Emax (STING protein): < 5%; WT_DSF_hSWAT Tm Shift (° C.) (hSTING-R232): C (“C” = 2-7° C,) | O=C(O)Cn1c2ccc(-c3ccccc3)cc2c(=O)c2ccc(Cl)c(Cl)c21 [Compound 125]
 | > 1000 µM | IC50 (hSTING-WT): 100 to 300 µM; WT_DSF_hSWAT Tm Shift (° C.) (hSTING-R232): C (“C” = 2-7° C,) | COc1c(Cl)ccc2c(=O)c3ccc(C4CCNCC4)cc3n(CC(=O)O)c12 [Compound 226]
 | > 1000 µM | IC50 (hSTING-WT): 20 to 100 µM; Emax (STING protein): < 5%; WT_DSF_hSWAT Tm Shift (° C.) (hSTING-R232): C (“C” = 2-7° C,) | CC(C)(C)c1ccc2c(=O)c3ccc(Cl)c(OC4CCC4)c3n(CC(=O)O)c2c1 [Compound 228]
 | < 100 µM | IC50 (hSTING-WT): > 300 µM; Emax (STING protein): < 5%; WT_DSF_hSWAT Tm Shift (° C.) (hSTING-R232): B (“B” = 0-2° C.) | COCc1c(Cl)ccc2c(=O)c3ccccc3n(CC(=O)O)c12 [Compound 229]
